Results reported in ChEMBL document CHEMBL5625170, “Design, synthesis, and biological evaluation of novel penindolone derivatives as potential inhibitors of hemagglutinin-mediated membrane fusion” (Eur J Med Chem, 2023).
Activity calls are given as the source filed them. No cut-off for these calls is given here.

Tests used:
[1] = Cytotoxicity against dog MDCK cells assessed as cell viability measured after 48 hrs by MTT assay; type: toxicity, cell-based, Canis lupus familiaris
[2] = Selectivity index, ratio of CC50 for cytotoxicity against dog MDCK cells to IC50 for anti-viral activity against Influenza A virus (A/Puerto Rico/8/34 infected in MDCK cells; type: toxicity, cell-based; details: read-out: Selectivity Index
[3] = system: Influenza A virus; experiment: In vivo antiviral activity against Influenza A virus (A/Puerto Rico/8/34) infected in BALB/c mouse assessed as increase in mouse survival at 10 mg/kg, po once daily treated after 4 hrs of inoculation for 14 days relative to control; type: functional; details: A/Puerto Rico/8/34, 336 h, time 14 day
[4] = Toxicity in BALB/c mouse infected with Influenza A virus (A/Puerto Rico/8/34) assessed as death at 10 mg/kg, po after 11 days; type: organism-based; details: in vivo, 264 h, time 11 day
[5] = Toxicity in BALB/c mouse infected with Influenza A virus (A/Puerto Rico/8/34) assessed as decrease in body weight at 10 mg/kg, po upto 8 days; type: organism-based; details: in vivo, 192 h, time < 8 day
[6] = system: Influenza A virus; experiment: In vivo antiviral activity against Influenza A virus (A/Puerto Rico/8/34) infected in BALB/c mouse assessed as intact columnar epithelia in bronchiole without inflammatory cell infiltration at 10 mg/kg, po once daily treated after 4 hrs of inoculation for 4 days relative to control by HE staining based histopathological analysis; type: functional, organism-based
[7] = target: Hemagglutinin (Influenza A virus (A/Puerto Rico/8/1934(H1N1)), UniProt P03452); experiment: Binding affinity to Influenza A virus (A/Puerto Rico/8/34) Hemagglutinin by surface plasmon resonance (SPR) assay
[8] = target: Hemagglutinin (Influenza A virus (A/Puerto Rico/8/1934(H1N1))) (UniProt P03452); experiment: Blockade of Influenza A virus (A/Puerto Rico/8/34) Hemagglutinin-mediated membrane fusion in Vero cells expressing PR8 HA assessed as syncytium formation at pH 5 and measured at 20 uM measured after 2 hrs by polykaryon assay; type: cell-based
[9] = target: Hemagglutinin (Influenza A virus (A/Puerto Rico/8/1934(H1N1))) (UniProt P03452); experiment: Blockade of Influenza A virus (A/Puerto Rico/8/34) Hemagglutinin-mediated membrane fusion in Vero cells expressing PR8 HA assessed as syncytium formation at pH 5 at 5 to 20 uM by quantitative membrane fusion assay; type: cell-based; details: dose 5-20 µM
[10] = system: Influenza A virus; experiment: Potency index, ratio of penindolone-IC50 to test compound IC50 for anti-viral activity against Influenza A virus (A/Puerto Rico/8/34) infected in MDCK cells; type: functional
[11] = system: Influenza A virus; experiment: Anti-viral activity against Influenza A virus H1N1 (A/Virginia09/ATCC1/2009; Vir09) infected in MDCK cells assessed as inhibition of virus cytopathic effect measured after 48 hrs by crystal violet staining based assay; type: functional
[12] = system: Influenza A virus; experiment: Anti-viral activity against Influenza A virus H1N1 (A/WSN/33; WSN) infected in MDCK cells assessed as inhibition of virus cytopathic effect measured after 48 hrs by crystal violet staining based assay; type: functional
[13] = system: Influenza A virus; experiment: Anti-viral activity against Influenza virus H3N2 (A/Aichi/2/68; Aichi) infected in MDCK cells assessed as inhibition of virus cytopathic effect measured after 48 hrs by crystal violet staining based assay; type: functional
[14] = system: Influenza B virus; experiment: Anti-viral activity against Influenza B virus strain (B/Hong Kong/5/72) infected in MDCK cells assessed as inhibition of virus cytopathic effect measured after 48 hrs by crystal violet staining based assay; type: functional
[15] = Cytotoxicity against human A549 cells assessed as cell viability measured after 48 hrs by MTT assay; type: toxicity, cell-based
[16] = Cytotoxicity against african green monkey Vero cells assessed as cell viability measured after 48 hrs by MTT assay; type: toxicity, cell-based; details: chlorocebus sabaeus
[17] = system: Influenza A virus; experiment: Anti-viral activity against Influenza A virus H1N1 (A/Puerto Rico/8/34) infected (at MOI = 3) in MDCK cell assessed as reduction in hemagglutinin titer using chicken RBC measured after 60 mins by hemagglutinin assay; type: functional, organism-based; details: H1N1 A/Puerto Rico/8/34, MDCK, 1 h
[18] = system: Influenza A virus; experiment: Anti-viral activity against Influenza H1N1 virus (A/Virginia09/ATCC1/2009; Vir09) infected (at MOI = 3) in MDCK cell assessed as reduction in hemagglutinin titer using chicken RBC measured after 60 mins by hemagglutinin assay; type: functional, organism-based; details: H1N1 A/Virginia09/ATCC1/2009, dose 5-20 µM
[19] = system: Influenza A virus; experiment: Anti-viral activity against Influenza virus H3N2 (A/Aichi/2/68; Aichi) infected (at MOI = 3) in MDCK cell assessed as reduction in hemagglutinin titer using chicken RBC measured after 60 mins by hemagglutinin assay; type: functional, organism-based; details: 1 h
[20] = system: MDCK; experiment: Reduction in HA2 protein expression in Influenza A virus (A/Puerto Rico/8/34) infected in MDCK cell after 60 mins by Western blot analysis; type: functional, cell-based; details: dose 2.5-20 µM
[21] = system: MDCK; experiment: Reduction in NS1 protein expression in Influenza A virus (A/Puerto Rico/8/34) infected in MDCK cell after 60 mins by Western blot analysis; type: functional, cell-based
[22] = system: MDCK; experiment: Reduction in NP protein expression in Influenza A virus (A/Puerto Rico/8/34) infected in MDCK cell at 40 uM after 60 mins by Western blot analysis; type: functional, cell-based
[23] = target: Hemagglutinin (Influenza A virus (A/Puerto Rico/8/1934(H1N1))) (UniProt P03452); experiment: Blockade of Influenza A virus (A/Puerto Rico/8/34) Hemagglutinin-mediated membrane fusion in Vero cells expressing PR8 HA assessed as syncytium formation at pH 5 and measured at 15 uM measured after 2 hrs by polykaryon assay; type: cell-based
[24] = target: Hemagglutinin (Influenza A virus (A/Puerto Rico/8/1934(H1N1))) (UniProt P03452); experiment: Blockade of Influenza A virus (A/Puerto Rico/8/34) Hemagglutinin-mediated membrane fusion in Vero cells expressing PR8 HA assessed as syncytium formation at pH 5 by quantitative membrane fusion assay; type: cell-based; details: dose 5-40 µM
[25] = target: Hemagglutinin (Influenza A virus (A/Puerto Rico/8/1934(H1N1))) (UniProt P03452); experiment: Inhibition of trypsin-mediated Influenza A virus (A/Puerto Rico/8/34) hemagglutinin protein digestion pretreated at 50 uM for 20 mins at pH 5 followed by treated with trypsin for 30 mins at pH 8.5 by SDS-PAGE/trypsin susceptibility (TS) assay
[26] = system: Influenza A virus; experiment: In vivo antiviral activity against Influenza A virus (A/Puerto Rico/8/34) infected in BALB/c mouse assessed as increase in mouse survival at 2.5 mg/kg, po once daily treated after 4 hrs of inoculation for 5 days; type: functional, organism-based; details: time 5.0 day
[27] = system: Influenza A virus; experiment: In vivo antiviral activity against Influenza A virus (A/Puerto Rico/8/34) infected in BALB/c mouse assessed as increase in mouse survival at 2.5 mg/kg, po once daily treated after 4 hrs of inoculation for 14 days relative to control; type: functional; details: A/Puerto Rico/8/34, 336 h, time 14 day
[28] = Toxicity in BALB/c mouse infected with Influenza A virus (A/Puerto Rico/8/34) assessed as death at 2.5 mg/kg, po after 8 days; type: organism-based; details: in vivo, 192 h, time 8 day
[29] = Toxicity in BALB/c mouse infected with Influenza A virus (A/Puerto Rico/8/34) assessed as decrease in body weight at 2.5 mg/kg, po upto 8 days; type: organism-based; details: in vivo, 192 h, time < 8 day
[30] = system: Influenza A virus; experiment: In vivo antiviral activity against Influenza A virus (A/Puerto Rico/8/34) infected in BALB/c mouse assessed as decrease in pulmonary viral titers at 2.5 to 5 mg/kg, po once daily treated after 4 hrs of inoculation for 4 days relative to control; type: functional, organism-based; details: dose 2.5-5 mg/kg, time 4.0 day
[31] = system: Influenza A virus; experiment: In vivo antiviral activity against Influenza A virus (A/Puerto Rico/8/34) infected in BALB/c mouse assessed as intact columnar epithelia in bronchiole without inflammatory cell infiltration at 5 mg/kg, po once daily treated after 4 hrs of inoculation for 4 days relative to control by HE staining based histopathological analysis; type: functional, organism-based

Sequence of Hemagglutinin (Influenza A virus (A/Puerto Rico/8/1934(H1N1))) (P03452 whole entry, the tested form may be a part): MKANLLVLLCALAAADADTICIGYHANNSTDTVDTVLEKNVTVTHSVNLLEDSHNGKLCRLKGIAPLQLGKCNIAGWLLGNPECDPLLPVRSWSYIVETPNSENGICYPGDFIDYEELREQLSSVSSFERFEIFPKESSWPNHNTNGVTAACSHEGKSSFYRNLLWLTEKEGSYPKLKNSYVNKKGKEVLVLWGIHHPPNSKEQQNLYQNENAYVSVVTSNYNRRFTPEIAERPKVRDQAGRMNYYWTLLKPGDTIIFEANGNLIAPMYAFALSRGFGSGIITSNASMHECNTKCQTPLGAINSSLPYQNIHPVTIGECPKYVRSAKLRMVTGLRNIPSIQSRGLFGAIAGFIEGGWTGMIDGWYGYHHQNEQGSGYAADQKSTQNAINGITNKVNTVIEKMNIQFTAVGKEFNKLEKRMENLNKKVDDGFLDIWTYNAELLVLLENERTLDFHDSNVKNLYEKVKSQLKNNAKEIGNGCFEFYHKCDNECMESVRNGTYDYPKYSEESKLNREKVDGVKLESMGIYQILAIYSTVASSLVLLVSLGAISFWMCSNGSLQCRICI
Sequence of Hemagglutinin (Influenza A virus (A/Puerto Rico/8/1934(H1N1)), UniProt P03452) (P03452 whole entry, the tested form may be a part): as above

CCOC(=O)C1=C[C@@H](OC(CC)CC)[C@H](NC(C)=O)[C@@H](N)C1 [OSELTAMIVIR]
CC50 at 48 h [1]: > 300 µM | selectivity ratio [2]: > 26.3 | survival at 10 mg/kg [3]: 80% | Activity [4]: Non-Toxic | Activity [5]: Toxic | Activity [6]: Active

CC(=O)c1cc(C)c(O)c(Cc2[nH]c3ccccc3c2Cc2c(O)c(C)cc(C(C)=O)c2O)c1O
CC50 at 48 h [1]: > 300 µM | selectivity ratio [2]: > 11.8 | Kd [7]: 8.4 µM | inhibition [8]: Active | inhibition [9]: Active

CC(=O)c1cc(C)c(O)c(Cc2[nH]c3ccc(-c4c5ccccc5cc5ccccc45)cc3c2Cc2c(O)c(C)cc(C(C)=O)c2O)c1O
CC50 at 48 h [1]: > 300 µM | selectivity ratio [2]: > 44.8 | Ratio IC50 [10]: 3.8 | inhibition (INH) [11]: 13.5% | inhibition (INH) [12]: 5.6% | inhibition (INH) [13]: 8.7% | inhibition (INH) [14]: 3.4% | CC50 at 48 h [15]: 180 µM | CC50 at 48 h [16]: 1350 µM | IC50 [17]: < 5 µM | inhibition [18]: Dose-Dependent Effect | IC50 [19]: < 10 µM | inhibition [20]: Dose-Dependent Effect | inhibition [21]: Dose-Dependent Effect | inhibition [22]: Active | Kd [7]: 6.4 µM | inhibition [23]: Active | inhibition [24]: Dose-Dependent Effect | inhibition [25]: Active | Activity [26]: Active | survival at 2.5 mg/kg [27]: 70% | Activity [28]: Toxic | Activity [29]: Non-Toxic | Activity [30]: Active | Activity [31]: Active

CCOC(=O)c1c(CSc2ccccc2)n(C)c2cc(Br)c(O)c(CN(C)C)c12 [UMIFENOVIR]
Kd [7]: 51.4 µM

COc1ccc2[nH]c(Cc3c(O)c(C)cc(C(C)=O)c3O)c(Cc3c(O)c(C)cc(C(C)=O)c3O)c2c1
CC50 at 48 h [1]: > 300 µM | selectivity ratio [2]: > 18.9

CC(=O)c1cc(C)c(O)c(Cc2[nH]c3cc(C)ccc3c2Cc2c(O)c(C)cc(C(C)=O)c2O)c1O
CC50 at 48 h [1]: > 300 µM | selectivity ratio [2]: > 19.9

CC(=O)c1cc(C)c(O)c(Cc2[nH]c3ccc(-c4csc5ccccc45)cc3c2Cc2c(O)c(C)cc(C(C)=O)c2O)c1O
CC50 at 48 h [1]: > 300 µM | selectivity ratio [2]: > 12.8

CC(=O)c1cc(C)c(O)c(Cc2[nH]c3cc(-c4ccc(C(F)(F)F)cc4)ccc3c2Cc2c(O)c(C)cc(C(C)=O)c2O)c1O
CC50 at 48 h [1]: > 300 µM | selectivity ratio [2]: > 12

CC(=O)c1cc(C)c(O)c(Cc2[nH]c3ccc(-c4ccc5ncccc5c4)cc3c2Cc2c(O)c(C)cc(C(C)=O)c2O)c1O
CC50 at 48 h [1]: > 300 µM | selectivity ratio [2]: > 16.2

CC(=O)c1cc(C)c(O)c(Cc2[nH]c3cc(-c4ccccc4)ccc3c2Cc2c(O)c(C)cc(C(C)=O)c2O)c1O
CC50 at 48 h [1]: > 300 µM | selectivity ratio [2]: > 12.8

COc1cccc(OC)c1-c1ccc2c(Cc3c(O)c(C)cc(C(C)=O)c3O)c(Cc3c(O)c(C)cc(C(C)=O)c3O)[nH]c2c1
CC50 at 48 h [1]: > 300 µM | selectivity ratio [2]: > 15.4

CC(=O)c1cc(C)c(O)c(Cc2[nH]c3ccc(-c4ccccc4)cc3c2Cc2c(O)c(C)cc(C(C)=O)c2O)c1O
CC50 at 48 h [1]: > 300 µM | selectivity ratio [2]: > 11.5

COc1ccc(-c2ccc3[nH]c(Cc4c(O)c(C)cc(C(C)=O)c4O)c(Cc4c(O)c(C)cc(C(C)=O)c4O)c3c2)cc1OC
CC50 at 48 h [1]: > 300 µM | selectivity ratio [2]: > 16.6
